System: 313798-341-R-J2-PDC spheroids, viability
Assay: Anticancer human tumor 313798-341-R-J2-PDC patient-derived cervical squamous cell carcinoma cell line growth inhibition [PI3K]
Details: spheroids with HUVEC and MSC; for IC50: curve of first compound; for viability, T/C: stronger effect = lower value
In short: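 Stroma-containing spheroids: tumor line, pooled-donor HUVEC, hMSC. Treatments: targeted agents with PI3K inhibitors. Dosing: clinically relevant, half-log spacing, 10 microM ceiling without known Cmax. Read-out: cell viability.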

[1] = second compound 0.0316 µM, first compound 0.0316 µM
[2] = second compound 0.0316 µM, first compound 0.1 µM
[3] = second compound 0.0316 µM, first compound 0.316 µM
[4] = second compound 0.0316 µM, first compound 1 µM
[5] = second compound 0.0316 µM, first compound 3.16 µM
[6] = second compound 0.0316 µM, first compound 10 µM
[7] = second compound 0.1 µM, first compound 0.0316 µM
[8] = second compound 0.1 µM, first compound 0.1 µM
[9] = second compound 0.1 µM, first compound 0.316 µM
[10] = second compound 0.1 µM, first compound 1 µM
[11] = second compound 0.1 µM, first compound 3.16 µM
[12] = second compound 0.1 µM, first compound 10 µM
[13] = second compound 0.316 µM, first compound 0.0316 µM
[14] = second compound 0.316 µM, first compound 0.1 µM
[15] = second compound 0.316 µM, first compound 0.316 µM
[16] = second compound 0.316 µM, first compound 1 µM
[17] = second compound 0.316 µM, first compound 3.16 µM
[18] = second compound 0.316 µM, first compound 10 µM
[19] = second compound 1 µM, first compound 0.0316 µM
[20] = second compound 1 µM, first compound 0.1 µM
[21] = second compound 1 µM, first compound 0.316 µM
[22] = second compound 1 µM, first compound 1 µM
[23] = second compound 1 µM, first compound 3.16 µM
[24] = second compound 1 µM, first compound 10 µM
[25] = second compound 3.16 µM, first compound 0.0316 µM
[26] = second compound 3.16 µM, first compound 0.1 µM
[27] = second compound 3.16 µM, first compound 0.316 µM
[28] = second compound 3.16 µM, first compound 1 µM
[29] = second compound 3.16 µM, first compound 3.16 µM
[30] = second compound 3.16 µM, first compound 10 µM
[31] = second compound 10 µM, first compound 0.0316 µM
[32] = second compound 10 µM, first compound 0.1 µM
[33] = second compound 10 µM, first compound 0.316 µM
[34] = second compound 10 µM, first compound 1 µM
[35] = second compound 10 µM, first compound 3.16 µM
[36] = second compound 10 µM, first compound 10 µM
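Also: spheroids exposed to compounds for seven days.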
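For viability, T/C in this document: 100% = DMSO vehicle control viability.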

`C#Cc1c(F)ccc2cc(O)cc(-c3ncc4c(N5CC6CCC(C5)N6)nc(OCC56CCCN5CC(F)C6)nc4c3F)c12` (stereo unspecified) + CC(Nc1ncnc2nc[nH]c12)c1cc2cccc(Cl)c2c(=O)n1-c1ccccc1 was tested, and the IC50 (second compound 0.0316 µM) was > 10 µM, the IC50 (second compound 0.1 µM) was > 10 µM and the IC50 (second compound 0.316 µM) was > 10 µM. For the same compound, the IC50 (second compound 1 µM) was > 10 µM, the IC50 (second compound 3.16 µM) was > 10 µM and the IC50 (second compound 10 µM) was > 10 µM. For the same compound, the viability, T/C [1] was 95.5%, the viability, T/C [2] was 95.7% and the viability, T/C [3] was 99%. For the same compound, the viability, T/C [4] was 101%, the viability, T/C [5] was 101% and the viability, T/C [6] was 96.9%. The viability, T/C [7] was 92.5%, the viability, T/C [8] was 95.8% and the viability, T/C [9] was 93.2%. The viability, T/C [10] was 98.3%, the viability, T/C [11] was 102% and the viability, T/C [12] was 102%. The viability, T/C [13] was 95.3%, the viability, T/C [14] was 104% and the viability, T/C [15] was 90.9%. It also gave a viability, T/C [16] of 93.9%, a viability, T/C [17] of 99.1% and a viability, T/C [18] of 100%. It also gave a viability, T/C [19] of 114%, a viability, T/C [20] of 99.4% and a viability, T/C [21] of 90.3%. The viability, T/C [22] was 94.6%, the viability, T/C [23] was 104% and the viability, T/C [24] was 107%. The viability, T/C [25] was 110%, the viability, T/C [26] was 97.2% and the viability, T/C [27] was 94.3%. It also gave a viability, T/C [28] of 101%, a viability, T/C [29] of 90.4% and a viability, T/C [30] of 99.9%. For the same compound, the viability, T/C [31] was 93.2%, the viability, T/C [32] was 83.9% and the viability, T/C [33] was 81%. The viability, T/C [34] was 81.2%, the viability, T/C [35] was 85.1% and the viability, T/C [36] was 81.9%.

For `CC(Cn1ccc(-c2ccc(C#N)c(Cl)c2)n1)NC(=O)c1cc(C(C)O)[nH]n1` (stereo unspecified) + CC(Nc1ccc2c(c1)OCCn1cc(N3C(=O)OCC3C(F)F)nc1-2)C(N)=O, the IC50 (second compound 0.00316 µM) was > 10 µM, the IC50 (second compound 0.01 µM) was > 10 µM and the IC50 (second compound 0.0316 µM) was > 10 µM. For the same compound, the IC50 (second compound 0.1 µM) was > 10 µM, the IC50 (second compound 0.316 µM) was > 10 µM and the IC50 (second compound 1 µM) was 4.5 µM. It also gave a viability, T/C (second compound 0.00316 µM, first compound 0.0316 µM) of 102%, a viability, T/C (second compound 0.00316 µM, first compound 0.1 µM) of 107% and a viability, T/C (second compound 0.00316 µM, first compound 0.316 µM) of 98.3%. The viability, T/C (second compound 0.00316 µM, first compound 1 µM) was 101%, the viability, T/C (second compound 0.00316 µM, first compound 3.16 µM) was 105% and the viability, T/C (second compound 0.00316 µM, first compound 10 µM) was 99.8%. It also gave a viability, T/C (second compound 0.01 µM, first compound 0.0316 µM) of 106%, a viability, T/C (second compound 0.01 µM, first compound 0.1 µM) of 103% and a viability, T/C (second compound 0.01 µM, first compound 0.316 µM) of 109%. For the same compound, the viability, T/C (second compound 0.01 µM, first compound 1 µM) was 103%, the viability, T/C (second compound 0.01 µM, first compound 3.16 µM) was 100% and the viability, T/C (second compound 0.01 µM, first compound 10 µM) was 89.1%. The viability, T/C [1] was 122%, the viability, T/C [2] was 111% and the viability, T/C [3] was 106%. The viability, T/C [4] was 113%, the viability, T/C [5] was 96.7% and the viability, T/C [6] was 97.2%. For the same compound, the viability, T/C [7] was 109%, the viability, T/C [8] was 107% and the viability, T/C [9] was 102%. It also gave a viability, T/C [10] of 117%, a viability, T/C [11] of 99.1% and a viability, T/C [12] of 82.3%. It also gave a viability, T/C [13] of 86.7%, a viability, T/C [14] of 86.3% and a viability, T/C [15] of 78.8%. For the same compound, the viability, T/C [16] was 84.5%, the viability, T/C [17] was 79.9% and the viability, T/C [18] was 60.8%. The viability, T/C [19] was 64.8%, the viability, T/C [20] was 55.5% and the viability, T/C [21] was 63.7%. It also gave a viability, T/C [22] of 58.6%, a viability, T/C [23] of 54.2% and a viability, T/C [24] of 40.5%.

In the case of `CC1(C)CCC(CN2CCN(c3ccc(C(=O)NS(=O)(=O)c4ccc(NCC5CCOCC5)c([N+](=O)[O-])c4)c(Oc4cnc5[nH]ccc5c4)c3)CC2)=C(c2ccc(Cl)cc2)C1` + CC(Nc1ncnc2nc[nH]c12)c1cc2cccc(Cl)c2c(=O)n1-c1ccccc1, the IC50 (second compound 0.0316 µM) is reported as 8.41 µM, the IC50 (second compound 0.1 µM) is reported as 9.89 µM and the IC50 (second compound 0.316 µM) is reported as 9.97 µM. The IC50 (second compound 1 µM) was 9.98 µM, the IC50 (second compound 3.16 µM) was 7.56 µM and the IC50 (second compound 10 µM) was 6.37 µM. The viability, T/C [1] was 104%, the viability, T/C [2] was 86.6% and the viability, T/C [3] was 107%. The viability, T/C [4] was 99.5%, the viability, T/C [5] was 85.2% and the viability, T/C [6] was 43.6%. For the same compound, the viability, T/C [7] was 91.6%, the viability, T/C [8] was 108% and the viability, T/C [9] was 85.4%. For the same compound, the viability, T/C [10] was 89.2%, the viability, T/C [11] was 84.8% and the viability, T/C [12] was 49.1%. For the same compound, the viability, T/C [13] was 99.4%, the viability, T/C [14] was 101% and the viability, T/C [15] was 102%. The viability, T/C [16] was 102%, the viability, T/C [17] was 82.4% and the viability, T/C [18] was 50%. For the same compound, the viability, T/C [19] was 103%, the viability, T/C [20] was 100% and the viability, T/C [21] was 94.5%. It also gave a viability, T/C [22] of 96.8%, a viability, T/C [23] of 74.4% and a viability, T/C [24] of 49.9%. It also gave a viability, T/C [25] of 103%, a viability, T/C [26] of 95.3% and a viability, T/C [27] of 85.2%. For the same compound, the viability, T/C [28] was 89.8%, the viability, T/C [29] was 79.8% and the viability, T/C [30] was 40.5%. It also gave a viability, T/C [31] of 82.1%, a viability, T/C [32] of 78.8% and a viability, T/C [33] of 87%. For the same compound, the viability, T/C [34] was 78.1%, the viability, T/C [35] was 62.3% and the viability, T/C [36] was 42.1%.

From PubChem BioAssay AID1963982 (Molecular Pharmacology Branch, DTP, NCI, 2024)
